Consider 58 compounds from PubChem BioAssay AID602166 (The Scripps Research Institute Molecular Screening Center, 2012).

Usually IC50 stands for the concentration at which inhibition is half-maximal.

In this experiment the target is Nuclear receptor coactivator 3 (Homo sapiens) (UniProt Q9Y6Q9). Kind of experiment: SRC3 coactivator transcriptional activity inhibitors, dose response, cell-based, luminescence (AID 602166).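 Note: potency for reduction of SRC3 reporter signal so compounds are inhibitors.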 The note with it: SRC3 luciferase reporter cell assay. On the technique in general: In a reporter assay the amount or activity of a reporter protein is the signal.
Sequence of Nuclear receptor coactivator 3 (Homo sapiens) (Q9Y6Q9 whole entry, looked up): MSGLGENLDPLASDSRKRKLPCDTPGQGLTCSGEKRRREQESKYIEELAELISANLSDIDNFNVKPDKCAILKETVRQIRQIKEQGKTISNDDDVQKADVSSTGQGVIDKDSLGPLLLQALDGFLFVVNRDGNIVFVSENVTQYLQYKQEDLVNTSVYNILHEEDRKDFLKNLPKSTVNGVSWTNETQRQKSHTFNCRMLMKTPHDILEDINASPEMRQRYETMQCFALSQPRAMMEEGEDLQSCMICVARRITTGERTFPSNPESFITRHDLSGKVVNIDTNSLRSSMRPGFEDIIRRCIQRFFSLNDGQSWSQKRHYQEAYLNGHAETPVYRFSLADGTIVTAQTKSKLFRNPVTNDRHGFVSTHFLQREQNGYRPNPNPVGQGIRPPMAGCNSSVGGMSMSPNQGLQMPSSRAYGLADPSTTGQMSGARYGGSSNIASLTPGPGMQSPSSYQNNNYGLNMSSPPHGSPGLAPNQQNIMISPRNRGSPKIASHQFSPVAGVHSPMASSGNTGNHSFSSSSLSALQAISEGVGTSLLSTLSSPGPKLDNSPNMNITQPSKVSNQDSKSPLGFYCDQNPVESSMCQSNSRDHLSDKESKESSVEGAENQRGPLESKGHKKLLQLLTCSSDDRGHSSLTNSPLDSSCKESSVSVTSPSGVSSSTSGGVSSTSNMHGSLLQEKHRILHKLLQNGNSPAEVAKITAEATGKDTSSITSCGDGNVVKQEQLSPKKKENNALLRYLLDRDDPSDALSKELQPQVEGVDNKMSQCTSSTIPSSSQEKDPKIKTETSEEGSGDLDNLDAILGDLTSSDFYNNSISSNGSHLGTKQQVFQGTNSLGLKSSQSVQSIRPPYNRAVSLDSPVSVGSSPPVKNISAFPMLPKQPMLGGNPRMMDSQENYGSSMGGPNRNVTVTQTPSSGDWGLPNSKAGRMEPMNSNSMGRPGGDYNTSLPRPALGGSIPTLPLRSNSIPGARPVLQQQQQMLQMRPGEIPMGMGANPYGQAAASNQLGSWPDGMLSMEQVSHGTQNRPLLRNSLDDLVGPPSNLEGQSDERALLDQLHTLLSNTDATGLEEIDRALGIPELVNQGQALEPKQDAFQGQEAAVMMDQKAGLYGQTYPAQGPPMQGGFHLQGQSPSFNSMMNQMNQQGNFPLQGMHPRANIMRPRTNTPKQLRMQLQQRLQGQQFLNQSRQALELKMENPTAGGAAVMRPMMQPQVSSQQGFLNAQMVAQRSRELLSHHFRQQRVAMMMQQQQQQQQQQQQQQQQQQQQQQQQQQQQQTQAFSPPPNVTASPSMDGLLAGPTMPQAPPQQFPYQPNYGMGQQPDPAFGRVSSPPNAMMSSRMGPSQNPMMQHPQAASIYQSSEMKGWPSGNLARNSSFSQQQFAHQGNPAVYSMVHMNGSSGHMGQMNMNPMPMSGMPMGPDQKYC

Calls of active or inactive are those of the source. The rule behind the calls is not given here.

With `Cc1nc(N)nc(N)c1-c1ccc(Cl)c(Cl)c1`, the IC50 was 1.37 µM.
The result for `c1ccc(-c2noc(-c3ccc4ccccc4c3)n2)nc1` reads 8.62 µM; that for `O=S(=O)(c1ccc(F)cc1)c1snnc1-c1ccccc1`, “inactive”.
With `O=C(Nc1cccc(C(F)(F)F)c1)Nc1nnc([C@@H]2C[C@H](O)[C@@H](CO)O2)s1` the figure was 5.86 µM; with `CCn1ccnc1CN(C)Cc1cn[nH]c1-c1ccc(OC)c(F)c1`, 4.91 µM.
Take `CCCC(=O)NC(c1ccc2c(c1)OCO2)c1cc(Cl)c2cccnc2c1O` (stereo not drawn): the IC50 was 7.71 µM.
With `CCc1nc(N)nc(N)c1-c1ccc(Cl)c([N+](=O)[O-])c1` the figure was 4.28 µM.
The result for `C#CC(=O)N(c1cc(OC)ccc1OC)C(C(=O)NC1CCCC1)c1cccs1` (stereo not drawn) reads > 35.9 µM (inactive).
The result for `C/C(=N\NC(=S)Nc1cc(S(=O)(=O)N2CCOCC2)ccc1Cl)c1ccccc1F` reads > 35.9 µM (inactive); that for `CC(=O)/C(N=Nc1ccc2c(c1)OCCO2)=C(\C)O`, > 35.9 µM (inactive); that for `COc1cc2[nH]c3c(Cl)ncnc3c2cc1OC`, > 35.9 µM (inactive).
For the compound `CC(=O)Nc1ccc(SCC(=O)c2cc(C)n(-c3ccccc3F)c2C)cc1`, the IC50 is > 35.9 µM (inactive).
The result for `COc1cc(C2c3cc4c(cc3C(OC3OC5COC(c6cccs6)OC5C(O)C3O)C3COC(=O)C23)OCO4)cc(OC)c1O` (stereo not drawn) reads 0.093 µM; that for `CC(C)N(c1ccccc1)c1ccc(NC(=O)CCl)cc1`, “inactive”; that for `O=C(NCCCn1ccnc1)c1ccc(N2CCCCCC2)c([N+](=O)[O-])c1`, “inactive”.
In the case of `CN(C)/C=C/C(=O)c1ccc2noc(-c3ccccc3)c2c1`, the IC50 was 3.72 µM.
The result for `Nc1ncnc(NCc2ccccc2)c1[N+](=O)[O-]` reads 5.6 µM; that for `CCOc1cc(/C=C2\CCC/C(=C\c3cc(Cl)c(O)c(OCC)c3)C2=O)cc(Cl)c1O`, > 35.8 µM (inactive); that for `Cc1cccc(C)c1NS(=O)(=O)c1ccc(-c2cnc(C3CC3)o2)cc1`, “inactive”.
With `COc1ccc(OC)c(Cc2cnc3nc(N)nc(N)c3c2C)c1` the figure was 7.45 µM.
The result for `NC(=S)NN=Cc1nccc2c(N)cccc12` reads 2.42 µM; that for `CCCC(=O)NC(c1ccc(Cl)cc1)c1ccc2cccnc2c1O` (stereo not drawn), 4.7 µM; that for `COc1cc(C(=O)OCC(=O)Nc2sccc2C(N)=O)cc(OC)c1OC`, > 35.9 µM (inactive).
Turning to `COc1cc(/C=C2\CC(C(C)(C)C)C/C(=C\c3cc(OC)c(OC)c(OC)c3)C2=O)cc(OC)c1OC` (stereo not drawn), the IC50 was > 35.9 µM (inactive).
The result for `NC(=O)c1cc(Sc2ccccc2)nc2ccccc12` reads 3.53 µM; that for `CCCCN1C=CC(=C2C(=O)c3ccccc3C2=O)C=C1`, 4.47 µM; that for `COc1ccc2[nH]c(=O)c(CN(CCN3CCCC3)C(=O)Nc3ccccc3Cl)cc2c1`, “inactive”.
Turning to `CC(=O)Nc1ccc(SCC(=O)c2cc(C)n(-c3ccccc3)c2C)cc1`, the IC50 is > 35.9 µM (inactive).
Turning to `NC(=O)c1sc2nc3c(c(-c4ccco4)c2c1N)CCC3`, the IC50 was 1.12 µM.
`O=C(OCc1ccccc1)c1ccc(NCc2cc(O)ccc2O)cc1`: the IC50 entry is “inactive”.
Consider `CC(C)(C)C(=O)Nc1ccc(N=Nc2ccccc2)cc1`, for which the IC50 is > 35.9 µM (inactive).
The result for `CCN(C(C)=O)c1cnc(C=NNC(N)=S)c2ccccc12` reads 4.67 µM; that for `Cc1ccc(N=c2c([N+](=O)[O-])nn(-c3ccc4c(c3)OCCO4)n2O)cc1F`, 8.48 µM.
Take `CN(C)S(=O)(=O)c1ccc(N2CCN(S(=O)(=O)c3ccc(F)cc3)CC2)c(Cl)c1`: the IC50 is 7.88 µM.
Turning to `C(=N\Nc1ccc2ccccc2n1)/c1ccc2c(c1)OCCO2`, the IC50 entry was “inactive”.
With `Cc1ccc(/C=C2/SC(=S)N(CCCC(=O)Nc3ccc(O)cc3)C2=O)cc1` the figure was 6.45 µM.
With `O=c1[nH]c2ccccc2n1C1CCN(C(c2cc3ccccc3o2)c2nnnn2Cc2ccccc2)CC1` (stereo not drawn) the entry was “inactive”.
With `CN1CCN(c2ccc(NC(=O)N3CCc4ccccc43)cc2)CC1` the figure was > 35.9 µM (inactive); with `O=C(Nc1ccccc1Oc1ccccc1)c1cc([N+](=O)[O-])ccc1Cl`, 5.45 µM; with `O=C(NCCc1ccccc1)c1ccc2c(c1)OCCO2`, 9.59 µM.
Regarding `CC(=O)OCCN1c2ccccc2Sc2cnccc21`, the IC50 was 5.67 µM.
With `COc1cccc(/C=N/Nc2ccc([N+](=O)[O-])cn2)c1O` the entry was “inactive”; with `CC(C)(C)c1cc(C(=O)N/N=C/c2ccc(O)cc2)n(-c2ccccc2)n1`, > 35.9 µM (inactive); with `COc1ccc(C(C(=O)NC2CCCCC2)N(C(=O)CCl)c2ccc(OC)cc2)cc1` (stereo not drawn), 7.79 µM.
For the compound `C=CC[n+]1c(-c2ccc(C)cc2)csc1Nc1ccc(NC(C)=O)cc1`, the IC50 is > 35.9 µM (inactive).
The result for `Nc1ccc(Oc2ccccc2-c2ccccc2)cc1` reads “inactive”.
The result for `CCCNC(=O)c1nnsc1S(=O)(=O)c1ccc(Cl)cc1` reads 8.04 µM.
With `COc1cc2c(c(OC)c1OC)-c1ccc(SC)c(=O)cc1C(NC=O)CC2` (stereo not drawn) the entry was “inactive”; with `NC(=S)N/N=C1\CCSc2ccc(Cl)cc21`, 3.94 µM.
Regarding `COc1cc2c(ccc3cc(OC)c(OC)c(O)c32)cc1O`, the IC50 entry is “inactive”.
With `O=C(CNc1cccc([N+](=O)[O-])c1)N/N=C/c1ccc([N+](=O)[O-])o1` the entry was “inactive”.
For the compound `Cc1cc(C(=O)COC(=O)C2=COCCO2)c(C)n1-c1ccccc1`, the IC50 was > 35.9 µM (inactive).
With `O=C(CCl)N(c1ccccc1)C1CCCCC1` the figure was 8.7 µM; with `NNC(=O)c1cc2ccccc2cc1O`, 7.35 µM.
The result for `O=C(CCl)N(c1ccccc1)C1CCS(=O)(=O)C1` (stereo not drawn) reads 6.92 µM; that for `Cc1ccc(-n2c(Cl)c(Cl)nc(Cl)c2=O)cc1`, “inactive”; that for `Cc1cc(-c2nnc(SCC(=O)Nc3ccccc3C(F)(F)F)o2)c(C)n1-c1ccccc1`, > 35.9 µM (inactive).
The result for `O=C(NC(NC(=S)N1CCOCC1)C(Cl)(Cl)Cl)c1ccc(Cl)cc1` (stereo not drawn) reads > 35.9 µM (inactive).
